The Ki is a measure of affinity in units of concentration, obtained from inhibition or displacement. One may read the Kd as the equilibrium constant for the complex coming apart. The term logP denotes a log measure of how a compound divides between an organic and an aqueous phase. In general, logD refers to the decadic logarithm of the distribution of all forms, ionised or not, between an organic phase and buffer at a given pH. A high value points to higher lipophilicity.

Several values for one entry are separate records, joined by “and”; a condition that tells them apart may be missing. Identical values can stand only once. Entries after “also recorded” stand apart in the source; their conditions may differ. Like-named read-outs stand apart in the source and are kept apart here.

In one series the target is fibrillar Aβ aggregates (Homo sapiens, UniProt P05067). Particulars: read-out: Inhibition constants (Ki) for binding to fibrillar Aβ aggregates; cited from earlier work.
Chain of fibrillar Aβ aggregates (P05067 672-711 limits assumed): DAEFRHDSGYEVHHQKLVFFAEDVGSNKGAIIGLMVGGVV
Series [1] has as its system 46 CNS and Cardiovascular receptor binding sites. As to the kind of experiment: Binding at CNS and Cardiovascular Receptors (panel of 46 sites). Conditions: 1 μM; inhibition >50% considered significant. The procedure: A panel of 46 CNS and Cardiovascular receptor binding sites, including adenosine, adrenergic, benzodiazepine, bombesin, dopamine, GABA, melatonin, muscarinic, neurotensin, nicotininc acetylcholine, opiate, potassium channel, serotonin, sigma, and several transporter subtypes, was tested for binding of Compound 15. […] Inhibition of binding in excess of 50% by Compound 15 was considered potentially significant.

The nature of series [2]: Organ distribution in normal mice after i.v. injection. The format is in vivo. Conditions: for Biodistribution Brain (% dose/g in brain) / % total counted / % total recovered / Biodistribution Brain: normal male mice; for Brain penetration and clearance: normal mice. The procedure: While under isoflurane anesthesia, 0.15 ml of a 0.9% saline solution containing ^123I-15 (5-10 μCi) was injected directly into the tail vein of ICR mice (22-25 g, male). The mice (n=3 for each time point) were sacrificed, the organs of interest were removed, weighed, and assayed with an automatic gamma counter. The percentage dose per organ was calculated by a comparison of the tissue counts to suitably diluted aliquots of the injected material. Total activities of blood were calculated under the assumption that they were 7% of the total body weight. The % dose/g of samples was calculated by comparing the sample counts with the count of the diluted initial dose. […] Similar results were obtained in female mice.
While under isoflurane anesthesia, 0.15 ml of a 0.9% saline solution containing ^123I-1b-3 (5-10 μCi) was injected directly into the tail vein of ICR mice (22-25 g, male and female) The mice (n=3 for each time point per sex) were sacrificed, the organs of interest were removed, weighed, and assayed with an automatic gamma counter. The percentage dose per organ was calculated by a comparison of the tissue counts to suitably diluted aliquots of the injected material. Total activities of blood were calculated under the assumption that they were 7% of the total body weight. The % dose/g of samples was calculated by comparing the sample counts with the count of the diluted initial dose.

Series [3] addresses T1, amyloid plaques (Homo sapiens, UniProt P05067). As to the kind of experiment: Inhibition of ^125I-IMPY binding in AD brain homogenates. Particulars: read-out: Binding Affinity (Ki vs. ^125I-IMPY). The procedure:
Thus, inhibition of ^125I-IMPY binding in human AD brain homogenates was taken as an assay for the potential of test compounds to bind to amyloid plaques.
Postmortem brain tissue was obtained and neuropathological diagnosis was confirmed in accordance with the NIA-Reagan Institute Consensus Group criteria. Homogenates were then prepared from dissected gray matter, pooled in phosphate buffered saline and aliquoted into 1-ml portions (100 mg wet tissue/ml), which could be stored at −70° C. for 3-6 months without loss of binding signal.
For the binding assays brain homogenates were incubated with ^125I-IMPY (0.04-0.06 nM diluted in phosphate buffered saline (PBS)) and test compound (10^−5-10^−10 M diluted in PBS containing 0.1% bovine serum albumin (BSA)). […] The bound and free radioactivity was separated by vacuum filtration followed by 2×3 ml washes of PBS. Filters containing the bound ^125I ligand were assayed in a gamma counter.
For the binding assays brain homogenates were incubated with ^125I-IMPY (0.04-0.06 nM diluted in PBS) and test compound (10^−5-10^−10 M diluted in PBS containing 0.1% BSA). […] The bound and free radioactivity was separated by vacuum filtration followed by 2×3 ml washes of PBS. Filters containing the bound […], ligand were assayed in a gamma counter.

The target of series [4] is T1, amyloid plaques. Conditions: AD brain homogenates; other amyloid plaque ligands; read-out: Binding Affinity (Ki vs. ^125I-IMPY), published values; cited from earlier work.
For the next series, the target named is AD cortical homogenates. Particulars: cited from earlier work.
A short description of series [5]: Partition coefficient 1-octanol/buffer. Particulars: 1-octanol / 0.1 M phosphate buffer pH 7.4.
Method: (§1) Partition coefficients were measured by mixing ^123I-15 with 3 g each of 1-octanol and buffer (0.1 M phosphate, pH 7.4) in a test tube. The test tube was vortexed for 3 min at room temperature, followed by centrifugation for 5 min. Two weighed samples (0.5 g each) from the 1-octanol and the buffer layer were counted in a well counter. The partition coefficient was determined by calculating the ratio of cpm/g of 1-octanol to that of the buffer. Samples from the 1-octanol layer were repartitioned until consistent partitions of coefficient values were obtained from the third partition. The measurement was done in triplicate and repeated three times.
(§2) The test tube was vortexed for 3 min at room temperature, followed by centrifugation for 5 min. Two weighed samples (0.5 g each) from the 1-octanol and the buffer layer were counted in a well counter. The partition coefficient was determined by calculating the ratio of cpm/g of 1-octanol to that of the buffer. Samples from the 1-octanol layer were repartitioned until consistent partitions of coefficient values were obtained from the third partition. The measurement was done in triplicate and repeated three times.
The next series has as its system Aβ plaques. As to the kind of experiment: Film autoradiography of AD brain sections. The format is binding, human. Conditions: tracer concentrations, post-mortem AD brain sections. How it is done: Brain sections from a patient with AD were frozen in powdered dry ice and cut into 20 μm thick sections. The sections were incubated with ^123I-15 (200,000-250,000 cpm/200 μl) for 1 hour at room temperature. The sections were then dipped in saturated Li2CO3 in 40% EtOH (2×2 min. washes) and washed with 40% EtOH (1×2 min. wash) followed by rinsing with water for 30s. After drying, the ^123I-labeled sections were exposed to Kodak MR film overnight.
Brains sections from patients with AD were frozen in powdered dry ice and cut into 20 μm thick sections. The sections were incubated with ^123I-1b-3 (200,000-250,000 cpm/200 μl) for 1 hour at room temperature. The sections were then dipped in saturated Li2CO3 in 40% EtOH (2×2 min. washes) and washed with 40% EtOH (1×2 min. wash) followed by rinsing with water for 30 s. After drying, the ^123I-labeled sections were exposed to Kodak MR film overnight.

The nature of series [6]: Estimate of human dosimetry extrapolated from mouse data. Conditions: proposed 5 mCi human dose, extrapolation from mouse data.
A further series is described as follows: physchem. Particulars: pH 7.4.

T1 sequence (P05067 672-711 limits assumed): as above
Method for physchem: as §1, §2

On to `O=C(O)c1cc(/N=N/c2ccc(-c3ccc(/N=N/c4ccc(O)c(C(=O)O)c4)cc3)cc2)ccc1O` [CG, chrysamine-G], for which, at fibrillar Aβ aggregates, the Ki was 370 nM.

`CNc1ccc(/C=C/c2ccc(OCCOCCOCCF)c(I)c2)cc1` [Compound 1b-3, (E)-4-(4-(2-(2-(2-fluoroethoxy)ethoxy)ethoxy)-3-iodostyryl)-N-methylbenzenamine]: the “Selectivity (binding to CNS/CV receptors)” value in series [1] is “No high affinity binding to any CNS receptors”. Besides, the “Biodistribution Brain (% dose/g in brain)” value is given as 2.0 ± 0.4 % dose/g in series [2] (2 min) and 0.51 ± 0.09 % dose/g in series [2] (60 min). At amyloid plaques [3], the Ki was 9 ± 1.8 nM.

Take `CNc1ccc(/C=C/c2ccc(OCCOCCOCCF)cc2)cc1` [Compound 3, (E)-4-(2-(6-(2-(2-(2-fluoroethoxy)ethoxy)ethoxy)phenyl)-vinyl)-N-methylbenzamine, reference compound]: the “Selectivity (binding to CNS/CV receptors)” value in [1] was “No high affinity binding to any CNS receptors”. Further, the “Biodistribution Brain (% dose/g in brain)” value is 4.8 ± 0.2 % dose/g in [2] (2 min) and 1.5 ± 0.2 % dose/g in series [2] (60 min). In addition, the Ki at amyloid plaques [3] stood at 6.7 ± 0.3 nM.

As to `CC(=C(C#N)C#N)c1ccc2cc(N(C)CC[18F])ccc2c1` [FDDNP, 2-(1-{6-[(2-[^18F]fluoroethyl)(methyl)amino]-2-naphthyl}ethylidene)malononitrile], at amyloid plaques [4], the Ki is 239 nM.

As to `CNc1ccc(/C=C/c2ccc(O)cc2)cc1` [[^3H]SB-13], at AD cortical homogenates, the dissociation constant (Kd) is 2.4 ± 0.2 nM.

For `CNc1ccc(/C=C/c2ccc(OCCOCCOCCF)c([123I])c2)cc1` [^123I-1b-3], in series [5], the Partition coefficient turned out to be 432 and the logP stood at 2.63. For the same compound, the “Labeling of Aβ plaques in AD brain sections” value in the series with Aβ plaques is “specifically labeled Aβ plaques; also recorded: colocalize with plaque staining by Congo Red”. Moreover, in series [6], the “Estimated exposure of lower large intestine” value was “approximately 4.04 rem”, the “Estimated exposure of upper large intestine” value is about 3.55 rem and the “Estimated human effective dose (ED)” value is listed as 1.1 rem. Also, in series [2] (2 min), the “% total counted / % total recovered” value stood at 82.20 ± 6.38%; the “Biodistribution Brain” value was 1.01 ± 0.16 % dose/organ; the “Biodistribution Brain (% dose/g in brain)” value is 2.0 % dose/g and 2.05 ± 0.41 % dose/g. In [2] (60 min), the “% total counted / % total recovered” value stood at 83.26 ± 6.99%; the “Biodistribution Brain” value stood at 0.26 ± 0.05 % dose/organ; the “Biodistribution Brain (% dose/g in brain)” value is 0.51 % dose/g and 0.51 ± 0.09 % dose/g. Further, the “% total counted / % total recovered” value in [2] (120 min) is given as 83.56 ± 6.29%. Further, the “% total counted / % total recovered” value in series [2] (180 min) is on record as 79.15 ± 6.31%. In addition, the “Brain penetration and clearance” value in [2] is “readily penetrates and is rapidly cleared from the brain”.

In the case of `CNc1ccc(/C=C/c2cc([123I])cc(OCCO)c2)cc1` [^123I-15], the “Estimated human effective dose (ED)” value is “approximately 1.1 rem”. In “physchem”, this compound had a logD of 2.4 and a logP of 2.39. Moreover, the “Labeling of Aβ plaques in AD brain sections” value in the series with Aβ plaques is given as “specifically labeled Aβ plaques”. Besides, in series [2] (2 min), the “% total counted / % total recovered” value was 86.65 ± 1.34%; the “Biodistribution Brain” value is 1.49 ± 0.12 % dose/organ; the “Biodistribution Brain (% dose/g in brain)” value is 3.4 % dose/g and 3.40 ± 0.31 % dose/g. In addition, in series [2] (60 min), the “% total counted / % total recovered” value turned out to be 87.53 ± 4.57%; the “Biodistribution Brain” value came out at 0.21 ± 0.01 % dose/organ; the “Biodistribution Brain (% dose/g in brain)” value was 0.43 % dose/g and 0.43 ± 0.05 % dose/g. Also, the “% total counted / % total recovered” value in series [2] (120 min) was 79.41 ± 5.56%. Moreover, the “% total counted / % total recovered” value in series [2] (180 min) is 79.46 ± 5.15%. Further, in [2], the “Brain penetration and clearance” value was “readily penetrates and is rapidly cleared from the brain”.

(Values after patent US20080253967A1, “Halo-Stilbene Derivatives And Their Use For Binding And Imaging Of Amyloid Plaques” (priority 2007, published 2008).)
